{
  "source": "patent US20220152160A1",
  "about": "“DOSING REGIMEN” (Novo Nordisk A/S, priority 2013, published 2022)",
  "key": {"[1]": {"conditions": "in vivo; cited from earlier work"}, "[2]": {"system": "insulin-naïve participants with T2DM", "assay": "Clinical Trial 1 (26-week, treat-to-target): glycaemic control (HbA1c, FPG), IDeg U-200 vs IGlar", "assay_type": "in vivo, human", "conditions": "whole population", "source_text": "(§1) This phase 3a, 26-week, randomized, controlled, open-label, multinational, treat-to-target, non-inferiority trial compared the efficacy and safety of IDeg U-200 (i.e. 200 U/mL) and IGlar (100 U/mL) both administered OD in combination with metformin (met) ±DPP-4 inhibitor in insulin-naïve participants with T2DM previously treated with oral antidiabetic drugs OAD(s), who qualified for intensification of treatment. The trial was open-label because the pen devices used to administer the basal insulins were distinctively different and blinding was, therefore, impossible.\nParticipants who were insulin-naïve adults with T2DM for at least 6 months, HbA1, 7-10% (inclusive), BMI s 45 kg/m^2, and previously treated with metformin with or without additional OADs for at least 3 months were eligible to participate in the study.\n(§2) Using the interactive voice/web response system, eligible participants were randomized 1:1 to either once-daily IDeg U-200 (IDeg 200 U/mL, 3 mL FlexTouch®, Novo Nordisk, Bagsvård, Denmark) or once-daily IGlar (Lantus® 100 U/mL, 3 mL SoloStar® Sanofi Aventis U.S. LLC) and continued metformin ±DPP-4 inhibitor treatment. Trial participants were instructed to continue the same total daily dose of metformin and DPP-4 inhibitor treatment as before the start of the trial.\n(§3) Insulin degludec was administered once-daily with the main evening meal and, consistent with its product labelling, IGlar was administered once-daily (OD) at the same time each day. Either treatment was injected subcutaneously in the thigh, upper arm or abdomen. The starting dose for each was 10 U, and during the treatment period, the insulin dose was systematically titrated using a treat-to-target approach striving for a pre-breakfast self-measured plasma glucose (SMPG) level of 4.0-4.9 mmol/L (71-89 mg/dL). Both IDeg and IGlar were similarly titrated once weekly in 2 U increments. The treatment period was 26 weeks and doses were individually titrated in an effort to achieve the same glucose targets with both treatments.\nThe primary endpoint for this study was change in HbA1c (%) from baseline after 26 weeks of treatment. Secondary confirmatory endpoints tested were number of treatment-emergent confirmed hypoglycaemic episodes, change from baseline in central laboratory-measured fasting plasma glucose (FPG), within subject variability as measured by coefficient of variation (%), and frequency of participants achieving HbA1c<7% without hypoglycaemic episodes. The supportive secondary endpoints included 9-point SMPG profiles, frequency of participants achieving HbA1c<7%, and Health-Related Quality of Life (HRQoL; Short Form 36 [SF-36 v.2] questionnaire) scores. The safety assessments were adverse events, hypoglycaemic episodes, insulin dose, body weight, physical examination, vital signs, fundoscopy, electrocardiogram (ECG) and laboratory tests (including antibodies). Confirmed hypoglycaemic episodes were defined as episodes with a PG value of <3.1 mmol/L (56 mg/dL) and severe episodes requiring assistance.^7 Hypoglycaemic episodes occurring between 00:01 h and 05:59 h (inclusive) were classified as nocturnal.\nAnalyses of all efficacy endpoints were based on the full analysis set (FAS) which included all randomized participants. The safety analysis set included all participants who received at least one dose of the investigational product or the comparator. Missing values were imputed using the last observation carried forward (LOCF) method.\nThe primary objective of this trial was to confirm the non-inferiority of IDeg U-200 OD to IGlar OD as assessed by change in HbA1c from baseline after 26 weeks of treatment. Non-inferiority was confirmed if the upper limit of the 95% confidence interval (Cl) for the treatment difference was 50.4%. […]"}, "[3]": {"system": "insulin-naïve participants with T2DM", "conditions": "human, in vivo", "source_text": "as §1, §2, §3\nThe primary endpoint for this study was change in HbA1c (%) from baseline after 26 weeks of treatment. Secondary confirmatory endpoints tested were number of treatment-emergent confirmed hypoglycaemic episodes, change from baseline in central laboratory-measured fasting plasma glucose (FPG), within subject variability as measured by coefficient of variation (%), and frequency of participants achieving HbA1c<7% without hypoglycaemic episodes. […]\nTreatment difference in change from baseline in HbA1c after 26 weeks was analyzed using an Analysis of Variance (ANOVA) model with treatment, antidiabetic treatment at screening, sex and region (Europe, North America, or South Africa) as fixed factors, and age and baseline HbA1c as covariates. […] The number of treatment-emergent confirmed hypoglycaemic episodes was analyzed using a negative binomial regression model including treatment, antidiabetic therapy at screening, sex and region as fixed factors, and age as covariate. […]"}},
  "data": [
    {"substance": "NεB29-(Nα—(HOOC(CH2)14CO)-γ-Glu)des(B30)-human insulin [insulin degludec]", "values": [
      {"measurement": "duration of action", "setting": "[1]", "value": "greater than 42 hours"},
      {"measurement": "non-inferiority to IGlar in change in HbA1c from baseline", "setting": "[2]; 26 weeks", "value": "non-inferiority"},
      {"measurement": "estimated treatment difference (ETD) IDeg-IGlar in change in HbA1c", "setting": "[2]; 26 weeks, 95% CI −0.11, 0.19", "value": 0.04},
      {"measurement": "ETD in FPG (IDeg vs IGlar)", "setting": "[2]; 26 weeks, 95% CI −0.78, −0.06", "value": "−0.42"},
      {"measurement": "Central laboratory-measured FPG decrease", "setting": "[2]; after 26 weeks", "value": 4.0, "unit": "mmol/L"},
      {"measurement": "Central laboratory-measured FPG reached", "setting": "[2]; after 26 weeks", "value": 5.7, "unit": "mmol/L"},
      {"measurement": "FPG reduction compared with IGlar", "setting": "[2]; after 26 weeks", "value": "statistically significantly greater FPG reduction"},
      {"measurement": "%: Percentage of subjects experiencing at least one episode", "setting": "[3]", "value": 6.1, "unit": "%"},
      {"measurement": "ERR IDeg/IGlar, nocturnal confirmed hypoglycaemia", "setting": "[3]", "value": 0.64},
      {"measurement": "estimated rate ratio (ERR) IDeg/IGlar, confirmed hypoglycaemia", "setting": "[3]", "value": 0.86},
      {"measurement": "rate of nocturnal confirmed hypoglycaemic episodes", "setting": "[3]", "value": 0.18, "unit": "episodes/patient-year"}
    ]}
  ]
}
